Test results taken from paper PMC3960879 (Biology, 2013).
pKd: −log10 of the molar value. Where two headings read alike, the source gives them in different places.

Legend:
[1] = biological target: T1, F17aG receptor-binding domain (Escherichia coli, UniProt Q99003); assay: biochemical
T1 construct: variants of the lectin domains with oligolysine (4Lys) tails have been constructed; made in house; host or cells: E. coli (periplasm)
Description: (§1) The affinity profiles were determined by surface plasmon resonance (SPR) measurements using a BiaCore 3000 instrument (GE Healthcare). […] The proteins were covalently immobilized on CM5 sensor chips (Biacore AB) to an average density of 2000 RU (resonance units in pg/mm^2). On each chip, one flow cell was coated with a camel single domain antibody for use as a reference cell. The other three flow cells (Fc2, Fc3 and Fc4) were coated with three different F17G variants. Carbohydrate concentrations ranging from 10 µM to 10 mM in running buffer (20 mM Hepes, pH 7.4; 150 mM NaCl; 3 mM EDTA and 0.005% surfactant Tween 20) were incubated for one minute on all flow cells simultaneously, at 25 °C and at a flow rate of 30 µL/min. Complete dissociation of the carbohydrates in running buffer was verified before starting a new binding cycle. All binding cycles were performed in duplicate, including a zero concentration cycle (injection of pure running buffer). All analysis was done using the BIAeval software. In each case the equilibrium resonance signal from the reference cell was subtracted from that of the various F17G flow cells (2-1, 3-1, 4-1). A Langmuir binding isotherm with a 1:1 stoichiometry was fitted to the data, from which the equilibrium dissociation constants, Kd, were obtained.

[2] = biological target: T2, F17bG receptor-binding domain (Escherichia coli, UniProt Q47200); settings: SPR steady state, 25 °C, pH 7.4; read-out: Affinity range (Kd class), F17bG
T2 construct: variants of the lectin domains with oligolysine (4Lys) tails have been constructed; made in house; host or cells: E. coli (periplasm)
T2 sequence (Q47200 23-199): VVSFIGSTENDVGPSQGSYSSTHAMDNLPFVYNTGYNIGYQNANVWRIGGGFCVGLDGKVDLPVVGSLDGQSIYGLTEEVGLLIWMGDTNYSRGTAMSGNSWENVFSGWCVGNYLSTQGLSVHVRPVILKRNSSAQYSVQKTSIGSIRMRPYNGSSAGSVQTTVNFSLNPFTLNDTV
Description: as §1

[3] = biological target: F17fG receptor-binding domain (Escherichia coli, UniProt Q9RH91); assay: Surface plasmon resonance steady-state affinity, immobilized F17fG
F17fG receptor-binding domain, sequence (Q9RH91 23-198): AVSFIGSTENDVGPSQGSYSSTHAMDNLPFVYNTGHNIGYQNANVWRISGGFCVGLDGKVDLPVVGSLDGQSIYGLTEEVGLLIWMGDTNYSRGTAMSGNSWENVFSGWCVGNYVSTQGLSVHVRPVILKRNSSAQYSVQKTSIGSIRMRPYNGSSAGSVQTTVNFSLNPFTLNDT
Description: as §1

[4] = biological target: F17eG receptor-binding domain; assay: Surface plasmon resonance steady-state affinity, immobilized F17eG; parameters: species or system Escherichia coli; settings: SPR steady state, 25 °C, pH 7.4
Description: as §1

F17bG lectin domain = F17bG lectin domain (Escherichia coli, UniProt Q47200); settings: array version 2, exp. 400
F17bG lectin domain, sequence (Q47200 23-199): as the sequence (Q47200 23-199) above
Description: A microarray presenting 264 different glycans (mammalian printed array version 2) was used to evaluate if the F17G variant lectin domains differ in the range of glycan receptors that they recognize, thereby establishing tropism. The microarray was set up within the Consortium for Functional Glycomics (CFG) ([20], and supplemental data). Binding of F17G (200 µg/mL) was detected using anti-F17G polyclonal rabbit IgG (10 µg/mL), followed by fluorescently labelled goat anti-rabbit polyclonal antibodies (IgG-488, 5 µg/mL).
(§2) A microarray presenting 264 different glycans (mammalian printed array version 2 from the CFG, experiment 400) was used to evaluate whether the F17G variant lectin domains differ in the range of glycan receptors that they can recognize, thereby establishing strain-dependent tropism. […] The glycan array screening has been repeated for F17aG only on printed array version 4.1 (experiment 2053) (Figure 1).
Printed array version 2 at the Consortium for Functional Glycomics was used for glycan array screening of the variant F17G receptor binding domains. Slides were printed, with six replicates for each glycan, using glycan spotting concentrations of 100 μM, at the Consortium Carbohydrate Synthesis/Protein Expression Core D located at the Scripps Research Institute onto Schott Nexterion H slides (Schott Cat. No. 1070936B). Slide conditioning: preprinted slides were soaked in deionized water for 5 minutes at room temperature and dried under a stream of nitrogen. TSM buffer (20 mM Tris-HCl, pH 7.4, or MOPS 20 mM; 150 mM NaCl; 2 mM CaCl2, 2 mM MgCl2) was used as wash buffer (TSM buffer + 0.05% Tween 20) or binding buffer (TSM buffer + 0.05% Tween 20 + 1% BSA). (1) F17G was diluted to 200 μg/mL (Figure 1) in TSM binding buffer. (2) 50 μL of F17G was applied to the printed surface and coverslipped. (3) The slide was incubated, protected from light, in a humidified chamber for 1 hour at RT. (4) The slide was washed once in TSM wash buffer. 50 μL of the anti-F17G (10 μg/mL) polyclonal rabbit IgG were applied, coverslipped and incubated for 1 h at RT. (5) The slide was washed once in TSM wash buffer. Fifty μL of fluorescently labelled secondary goat anti-rabbit polyclonal antibodies (IgG-488, 5 µg/mL) were applied, coverslipped and incubated for 1 h at RT. (6) Slide was removed, followed by the coverslip, and washed for 10 s each in TSM wash buffer, TSM wash buffer lacking Tween 20, and deionized water. The slide was dried under a stream of nitrogen. (7) The binding image was read in a Perkin Elmer Microscanarray XL4000 scanner and tiff file of image stored. (8) Image analysis was performed using Imagene (V.6) image analysis software. (9) Raw data results files were generated in Excel format and uploaded to the Consortium database as .dat files. (10) Imagene data was uploaded to the database as .txt files.

FedF lectin domain = assay: CFG glycan array version 2 (experiment 399), FedF lectin domain; assay type: binding, Escherichia coli; settings: CFG glycan array experiment 399; FedF 100 μg/mL
Excerpt: The most highly, triple, sulfated disaccharide (1) is here the best binder: Galβ1,4GlcNAc sulfated at positions 3', 6' and 6 (Table 3). Sulfation of the O6 hydroxyl (2) of GlcNAc is important, as well as N-acetylation on its position 2 (3) because the lactose form has lower affinity. Monosulfation on the non-reducing end galactose (one ion at either 3', 6' or 4') and lack of sulfation at the reducing end GlcNAc each decrease the fluorescence signal dramatically.

F17aG lectin domain = F17aG lectin domain (Escherichia coli, UniProt Q99003); settings: array version 4.1, exp. 2053
F17aG lectin domain, sequence (Q99003 23-199): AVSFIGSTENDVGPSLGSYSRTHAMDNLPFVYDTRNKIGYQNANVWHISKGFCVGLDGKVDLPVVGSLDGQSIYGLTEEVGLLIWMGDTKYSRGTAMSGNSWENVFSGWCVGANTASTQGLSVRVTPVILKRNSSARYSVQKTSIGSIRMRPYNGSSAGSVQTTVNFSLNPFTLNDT
Excerpt: With mammalian printed array version 4.1, a new evaluation parameter was taken into account, namely % CV = 100 × Std. Dev/Mean. The highest and the lowest point from each set of six replicates have been removed so the average is of 4 values rather than 6. This eliminates some of the false hits that contain a single very high or low point. Thus, points with a high % CV should be considered suspect. […] This comparison provides information on binding specificity. The CFG glycan array data are available containing searchable results by means of flex-based data browser tools.
as §2

[5] = SPR steady state, 25 °C, pH 7.4, read-out: Affinity range (Kd class), F17aG
[6] = SPR steady state, 25 °C, pH 7.4, read-out: Affinity range (Kd class), F17fG
[7] = read-out: Affinity range (Kd class), F17eG
[8] = Affinity range (Kd class), F17aG, SPR steady state, 25 °C, pH 7.4
[9] = SPR steady state, 25 °C, pH 7.4, good fit for at least three related experiments, read-out: dissociation constant Kd, F17aG
[10] = good fit for at least three related experiments, read-out: dissociation constant Kd, F17eG

T1 sequence (Q99003 23-199): as above

CC(=O)N[C@H]1C(O)O[C@H](CO)[C@@H](O)[C@@H]1OS(=O)(=O)O (stereo partly drawn) [GlcNAc3SO3^−]
pKd [1, 5]: 2.00 to 3.00
pKd [2]: 2.00 to 3.00
pKd [3, 6]: < 1.00

CC(=O)N[C@H]1C(O)O[C@H](COP(=O)(O)O)[C@@H](O)[C@@H]1O (stereo partly drawn) [GlcNAc6PO3^2−]
pKd [1, 5]: < 1.00
pKd [2]: 1.00 to 2.00
pKd [3, 6]: < 1.00

CC(=O)N[C@@H]1[C@@H](O)[C@H](O)[C@@H](COS(=O)(=O)O)O[C@H]1O [GlcNAc6SO3^−]
pKd [1, 5]: 1.00 to 2.00
pKd [3, 6]: < 1.00
pKd [4, 7]: 2.00 to 3.00

CC(=O)N[C@@H]1[C@@H](O)[C@H](O)[C@@H](CO)O[C@H]1O [GlcNAc, N-acetylglucosamine]
pKd [1, 8]: 2.00 to 3.00
pKd ([1]; dissociation constant Kd, F17aG, SPR steady state, 25 °C, pH 7.4, good fit for at least three related experiments): 2.92
pKd [3]: 2.00 to 3.00

CO[C@@H]1O[C@H](CO)[C@H](O)[C@H](O)[C@H]1O[C@@H]1O[C@H](CO)[C@@H](O)[C@H](O)[C@H]1NC(C)=O [GlcNAcβ1,2Gal, GlcNAc(β1-2)Galβ1OMe]
pKd [1, 9]: 2.38
pKd [1, 5]: 2.00 to 3.00
pKd [4, 10]: 2.70
pKd [4, 7]: 2.00 to 3.00

CC(=O)N[C@H]1[C@H](O[C@@H]2[C@@H](OC[C@H]3OC(O)[C@@H](O)[C@@H](O[C@H]4O[C@H](CO)[C@@H](O)[C@H](O)[C@@H]4O[C@@H]4O[C@H](CO)[C@@H](O)[C@H](O)[C@H]4NC(C)=O)[C@@H]3O)O[C@H](CO)[C@@H](O)[C@@H]2O)O[C@H](CO)[C@@H](O)[C@@H]1O (stereo partly drawn) [GlcNAcβ1,2Manα1,6(GlcNAcβ1,2Manα1,3)Man]
pKd [1, 9]: 2.52
pKd [1, 5]: 2.00 to 3.00
pKd [4, 10]: 2.52
pKd [4, 7]: 2.00 to 3.00

CO[C@@H]1O[C@H](CO)[C@H](O)[C@H](O[C@@H]2O[C@H](CO)[C@@H](O)[C@H](O)[C@H]2NC(C)=O)[C@H]1O [GlcNAcβ1,3Gal, GlcNAc(β1-3)Galβ1OMe]
pKd ([1]; SPR measurements, text says F17G without variant, read-out: Kd of F17G as stated in the discussion): 3.18
pKd [1, 9]: 3.18
pKd [1, 5]: 3.00 to 4.00
pKd [2]: 2.00 to 3.00
pKd [3, 6]: 3.00 to 4.00
pKd [4, 10]: 3.55

CO[C@@H]1O[C@H](CO)[C@H](O[C@@H]2O[C@H](CO)[C@@H](O)[C@H](O)[C@H]2NC(C)=O)[C@H](O)[C@H]1O [GlcNAcβ1,4Gal, GlcNAc(β1-4)Galβ1OMe]
pKd [1, 9]: 2.48
pKd [1, 5]: 2.00 to 3.00
pKd [4, 10]: 2.57
pKd [4, 7]: 2.00 to 3.00

CC(=O)N[C@H]1[C@H](O[C@H]2[C@H](O)[C@@H](NC(C)=O)C(O)O[C@@H]2CO)O[C@H](CO)[C@@H](O)[C@@H]1O (stereo partly drawn) [GlcNAcβ1,4GlcNAc]
pKd [1, 9]: 2.48
pKd [1, 5]: 2.00 to 3.00
pKd [2]: 2.00 to 3.00
pKd [3, 6]: 2.00 to 3.00

CO[C@@H]1O[C@H](CO[C@@H]2O[C@H](CO)[C@@H](O)[C@H](O)[C@H]2NC(C)=O)[C@H](O)[C@H](O)[C@H]1O [GlcNAcβ1,6Gal, GlcNAc(β1-6)Galβ1OMe]
pKd [1, 9]: 2.55
pKd [1, 5]: 2.00 to 3.00
pKd [4, 10]: 2.42
pKd [4, 7]: 2.00 to 3.00

CC(=O)N[C@H]1C(O)O[C@H](CO)[C@@H](O[C@@H]2O[C@H](CO)[C@@H](O)[C@H](O)[C@H]2N)[C@@H]1O[C@H](C)C(=O)O (stereo partly drawn) [GlcNH2-MurNAc, glucosamine β1,4 N-actetylmuramic acid]
pKd [1, 5]: 1.00 to 2.00
pKd [2]: 1.00 to 2.00
pKd [3, 6]: < 1.00

CC(=O)N[C@@H]1C(O)O[C@H](CO)[C@@H](O)[C@@H]1O (stereo partly drawn) [N-acetylmannosamine]
pKd [1, 5]: 2.00 to 3.00
pKd [2]: 1.00 to 2.00
pKd [3, 6]: 2.00 to 3.00

CC(=O)N[C@H]1[C@H]([C@H](O)[C@H](O)CO)OC(O)(C(=O)O)C[C@@H]1O (stereo partly drawn) [N-acetylneuraminic acid]
pKd [1, 8]: < 1.00
pKd [3]: < 1.00

CC(=O)NC1C(O)OC(COS(=O)(=O)O)C(OC2OC(CO)C(O)C(OS(=O)(=O)O)C2O)C1O (stereo not drawn) [[3OSO3]Galβ1,4[6OSO3]GlcNAc]
Rank among binders on CFG array, F17bG (variant b) (F17bG lectin domain): 28th best binder
RFU (averaged Relative Fluorescence Units for the six replicates), FedF lectin domain (FedF lectin domain): 6,806 RFU
Rank among binders on CFG array, F17aG (F17aG lectin domain): tenth best binder

O=S(=O)(O)OCC1OC(O)C(O)C(O)C1OC1OC(CO)C(O)C(OS(=O)(=O)O)C1O (stereo not drawn) [[3OSO3]Galβ1,4[6OSO3]Glc]
RFU (averaged Relative Fluorescence Units for the six replicates), FedF lectin domain (FedF lectin domain): 4,073 RFU

CC(=O)N[C@H]1C(O)O[C@H](COS(=O)(=O)O)[C@@H](O[C@@H]2O[C@H](COS(=O)(=O)O)[C@H](O)[C@H](OS(=O)(=O)O)[C@H]2O)[C@@H]1O (stereo partly drawn) [[3OSO3][6OSO3]Galβ1,4[6OSO3]GlcNAc]
RFU (averaged Relative Fluorescence Units for the six replicates), FedF lectin domain (FedF lectin domain): 10,388 RFU

CC(=O)NC1C(O)OC(CO)C(OC2OC(COS(=O)(=O)O)C(OS(=O)(=O)O)C(O)C2O)C1O (stereo not drawn) [[4OSO3][6OSO3]Galβ1,4GlcNAc]
RFU (averaged Relative Fluorescence Units for the six replicates), FedF lectin domain (FedF lectin domain): 4,568 RFU

O=S(=O)(O)OC[C@H]1O[C@@H](O[C@H]2[C@H](O)[C@@H](O)C(O)O[C@@H]2COS(=O)(=O)O)[C@H](O)[C@@H](O)[C@H]1O (stereo partly drawn) [[6OSO3]Galβ1,4[6OSO3]Glc]
RFU (averaged Relative Fluorescence Units for the six replicates), FedF lectin domain (FedF lectin domain): 5,405 RFU

CC(=O)N[C@H]1[C@H](Oc2ccc([N+](=O)[O-])cc2)O[C@H](CO)[C@@H](O)[C@@H]1O [pNP-GlcNAc, paranitrophenyl β-GlcNAc]
pKd [1, 5]: 3.00 to 4.00
pKd [2]: 1.00 to 2.00
pKd [3, 6]: 2.00 to 3.00

GM1 ganglioside
pKd [3, 6]: < 1.00

Galβ1,6GlcNAc
pKd [3, 6]: 1.00 to 2.00
pKd [4, 7]: 2.00 to 3.00

HOOC(CH3)CH3-3-O-GlcNAcβ1,4GlcNAcβ-Sp10
Rank among binders on CFG array, F17aG (F17aG lectin domain): highest binding

Neu5Acα2,3Galβ1,3(Neu5Acα2,6)GlcNAcβ1,3Gal β1,4Glc
pKd [3, 6]: < 1.00

Neu5Acα2,3Galβ1,4GlcNAcβ1,2 Man
pKd [4, 7]: 1.00 to 2.00

[3OSO3][6OSO3]Galβ1,4GlcNAc
RFU (averaged Relative Fluorescence Units for the six replicates), FedF lectin domain (FedF lectin domain): 4,733 RFU
